Measured values taken from PubChem BioAssay (NCI).
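Dose response: 5 concentrations. Exposure: 48 h. Format: 96-well plates. Endpoint: linear interpolation; highest concentration if not reached. GI50 = concentration required for 50% inhibition of growth. TGI is the concentration that stops growth completely.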

How the values were obtained:
Assay in all cases: NCI tumour cell line growth inhibition, 48 h
786-0 renal = test system: 786-0 renal
A498 renal = test system: A498 renal
A549 NSCLC = test system: A549 NSCLC
ACHN renal = test system: ACHN renal
BT-549 breast = test system: BT-549 breast
CAKI-1 renal = test system: CAKI-1 renal
CCRF-CEM leukemia = test system: CCRF-CEM leukemia
COLO 205 colon = test system: COLO 205 colon
DU-145 prostate = test system: DU-145 prostate
EKVX NSCLC = test system: EKVX NSCLC
HCT-15 colon = test system: HCT-15 colon
HOP-62 NSCLC = test system: HOP-62 NSCLC
HOP-92 NSCLC = test system: HOP-92 NSCLC
HS 578T breast = test system: HS 578T breast
IGROV1 ovarian = test system: IGROV1 ovarian
K-562 leukemia = test system: K-562 leukemia
KM12 colon = test system: KM12 colon
LOX IMVI melanoma = test system: LOX IMVI melanoma
M14 melanoma = test system: M14 melanoma
MALME-3M melanoma = test system: MALME-3M melanoma
MCF7 breast = test system: MCF7 breast
MDA-MB-231 breast = test system: MDA-MB-231 breast
MDA-MB-435 = test system: MDA-MB-435
MOLT-4 leukemia = test system: MOLT-4 leukemia
NCI-H226 lung = test system: NCI-H226 lung
NCI-H23 lung = test system: NCI-H23 lung
NCI-H460 lung = test system: NCI-H460 lung
NCI-H522 lung = test system: NCI-H522 lung
NCI/ADR-RES ovarian = test system: NCI/ADR-RES ovarian
OVCAR-3 ovarian = test system: OVCAR-3 ovarian
OVCAR-4 ovarian = test system: OVCAR-4 ovarian
OVCAR-5 ovarian = test system: OVCAR-5 ovarian
OVCAR-8 ovarian = test system: OVCAR-8 ovarian
PC-3 prostate = test system: PC-3 prostate
RPMI-8226 leukemia = test system: RPMI-8226 leukemia
RXF 393 renal = test system: RXF 393 renal
SF-268 CNS = test system: SF-268 CNS
SF-295 CNS = test system: SF-295 CNS
SF-539 CNS = test system: SF-539 CNS
SK-MEL-2 melanoma = test system: SK-MEL-2 melanoma
SK-MEL-28 melanoma = test system: SK-MEL-28 melanoma
SK-MEL-5 melanoma = test system: SK-MEL-5 melanoma
SK-OV-3 ovarian = test system: SK-OV-3 ovarian
SN12C renal = test system: SN12C renal
SNB-19 CNS = test system: SNB-19 CNS
SNB-75 CNS = test system: SNB-75 CNS
SR leukemia = test system: SR leukemia
SW-620 colon = test system: SW-620 colon
T-47D breast = test system: T-47D breast
TK-10 renal = test system: TK-10 renal
U251 CNS = test system: U251 CNS
UACC-257 melanoma = test system: UACC-257 melanoma
UACC-62 melanoma = test system: UACC-62 melanoma
UO-31 renal = test system: UO-31 renal
HCC-2998 colon = test system: HCC-2998 colon
HCT-116 colon = test system: HCT-116 colon
HL-60(TB) leukemia = test system: HL-60(TB) leukemia
HT29 colon = test system: HT29 colon

O=C1C=CC(O)C2C1CC13SSC4(CC5C(=O)C=CC(O)C5N4C1=O)C(=O)N23 (stereo unspecified)
TGI (786-0 renal): 0.49 µM
TGI (A498 renal): 6.26 µM
TGI (A549 NSCLC): 10.8 µM
TGI (ACHN renal): 0.835 µM
TGI (BT-549 breast): 3.65 µM
TGI (CAKI-1 renal): 0.957 µM
TGI (CCRF-CEM leukemia): 1.95 µM
TGI (COLO 205 colon): 1.04 µM
TGI (DU-145 prostate): 1.07 µM
TGI (EKVX NSCLC): 2.33 µM
TGI (HCT-15 colon): 0.794 µM
TGI (HOP-62 NSCLC): 1.15 µM
TGI (HOP-92 NSCLC): 0.573 µM
TGI (HS 578T breast): 2.26 µM
TGI (IGROV1 ovarian): 3.43 µM
TGI (K-562 leukemia): > 100 µM
TGI (KM12 colon): 0.342 µM
TGI (LOX IMVI melanoma): 0.193 µM
TGI (M14 melanoma): 0.752 µM
TGI (MALME-3M melanoma): 1.22 µM
TGI (MCF7 breast): > 100 µM
TGI (MDA-MB-231 breast): 0.947 µM
TGI (MDA-MB-435): 0.434 µM
TGI (MOLT-4 leukemia): > 100 µM
TGI (NCI-H226 lung): 1.19 µM
TGI (NCI-H23 lung): 0.393 µM
TGI (NCI-H460 lung): > 34.2 µM
TGI (NCI-H522 lung): 0.544 µM
TGI (NCI/ADR-RES ovarian): 0.093 µM
TGI (OVCAR-3 ovarian): 0.53 µM
TGI (OVCAR-4 ovarian): 4.89 µM
TGI (OVCAR-5 ovarian): 0.571 µM
TGI (OVCAR-8 ovarian): 0.271 µM
TGI (PC-3 prostate): 1.13 µM
TGI (RPMI-8226 leukemia): 0.093 µM
TGI (RXF 393 renal): 1.48 µM
TGI (SF-268 CNS): 5.85 µM
TGI (SF-295 CNS): 2.94 µM
TGI (SF-539 CNS): 0.505 µM
TGI (SK-MEL-2 melanoma): 3.56 µM
TGI (SK-MEL-28 melanoma): 1.91 µM
TGI (SK-MEL-5 melanoma): 1.06 µM
TGI (SK-OV-3 ovarian): 14.1 µM
TGI (SN12C renal): 0.743 µM
TGI (SNB-19 CNS): 5.19 µM
TGI (SNB-75 CNS): 5.14 µM
TGI (SR leukemia): 0.0727 µM
TGI (SW-620 colon): 0.136 µM
TGI (T-47D breast): 2.53 µM
TGI (TK-10 renal): 1.81 µM
TGI (U251 CNS): 1.28 µM
TGI (UACC-257 melanoma): 0.768 µM
TGI (UACC-62 melanoma): 0.622 µM
TGI (UO-31 renal): 1.27 µM

Cc1nc(Nc2nc3ccccc3o2)nc(-c2cccc([N+](=O)[O-])c2)c1C(=O)Nc1ccc(F)c(Cl)c1
GI50 (786-0 renal): 3.18 µM
TGI (786-0 renal): > 100 µM
GI50 (A498 renal): 0.853 µM
TGI (A498 renal): 3.5 µM
GI50 (A549 NSCLC): 1.92 µM
TGI (A549 NSCLC): > 100 µM
GI50 (ACHN renal): 2.42 µM
TGI (ACHN renal): 81.7 µM
GI50 (BT-549 breast): 3.08 µM
TGI (BT-549 breast): 68.4 µM
GI50 (CCRF-CEM leukemia): 2.34 µM
TGI (CCRF-CEM leukemia): 24.2 µM
GI50 (COLO 205 colon): 1.78 µM
TGI (COLO 205 colon): 3.4 µM
GI50 (DU-145 prostate): 2.95 µM
TGI (DU-145 prostate): > 100 µM
GI50 (HCC-2998 colon): 3.26 µM
TGI (HCC-2998 colon): > 100 µM
GI50 (HCT-116 colon): 1.98 µM
TGI (HCT-116 colon): > 100 µM
GI50 (HCT-15 colon): 2.29 µM
TGI (HCT-15 colon): > 100 µM
GI50 (HL-60(TB) leukemia): 2.15 µM
TGI (HL-60(TB) leukemia): 5.29 µM
GI50 (HOP-62 NSCLC): 2.58 µM
TGI (HOP-62 NSCLC): 50.4 µM
GI50 (HOP-92 NSCLC): 1.39 µM
TGI (HOP-92 NSCLC): 4.66 µM
GI50 (HS 578T breast): 2.87 µM
TGI (HS 578T breast): 38.8 µM
GI50 (HT29 colon): 2.21 µM
TGI (HT29 colon): 19.5 µM
GI50 (IGROV1 ovarian): 2.94 µM
TGI (IGROV1 ovarian): > 100 µM
GI50 (K-562 leukemia): 1.84 µM
TGI (K-562 leukemia): > 100 µM
GI50 (KM12 colon): 1.96 µM
TGI (KM12 colon): 12.4 µM
GI50 (LOX IMVI melanoma): 2.78 µM
TGI (LOX IMVI melanoma): > 100 µM
GI50 (M14 melanoma): 3.26 µM
TGI (M14 melanoma): > 100 µM
GI50 (MALME-3M melanoma): 1.92 µM
TGI (MALME-3M melanoma): 5.79 µM
GI50 (MCF7 breast): 2.04 µM
TGI (MCF7 breast): 9.73 µM
GI50 (MDA-MB-231 breast): 1.88 µM
TGI (MDA-MB-231 breast): 4.82 µM
GI50 (MDA-MB-435): 2.16 µM
TGI (MDA-MB-435): 8.01 µM
GI50 (MOLT-4 leukemia): 3.24 µM
TGI (MOLT-4 leukemia): 16.9 µM
GI50 (NCI-H226 lung): 3.05 µM
TGI (NCI-H226 lung): > 100 µM
GI50 (NCI-H23 lung): 2.19 µM
TGI (NCI-H23 lung): 18.8 µM
GI50 (NCI-H460 lung): 1.43 µM
TGI (NCI-H460 lung): 17.7 µM
GI50 (NCI-H522 lung): 1.39 µM
TGI (NCI-H522 lung): 5.71 µM
GI50 (NCI/ADR-RES ovarian): 2.33 µM
TGI (NCI/ADR-RES ovarian): 10.5 µM
GI50 (OVCAR-3 ovarian): 1.02 µM
TGI (OVCAR-3 ovarian): 13.8 µM
GI50 (OVCAR-4 ovarian): 1.62 µM
TGI (OVCAR-4 ovarian): 35 µM
GI50 (OVCAR-5 ovarian): 3.8 µM
TGI (OVCAR-5 ovarian): > 100 µM
GI50 (OVCAR-8 ovarian): 2.44 µM
TGI (OVCAR-8 ovarian): > 100 µM
GI50 (PC-3 prostate): 0.797 µM
TGI (PC-3 prostate): 11.5 µM
GI50 (RPMI-8226 leukemia): 0.724 µM
TGI (RPMI-8226 leukemia): 4.26 µM
GI50 (RXF 393 renal): 2.83 µM
TGI (RXF 393 renal): > 100 µM
GI50 (SF-268 CNS): 3.3 µM
TGI (SF-268 CNS): > 100 µM
GI50 (SF-295 CNS): 1.65 µM
TGI (SF-295 CNS): 7.09 µM
GI50 (SF-539 CNS): 3.52 µM
TGI (SF-539 CNS): > 100 µM
GI50 (SK-MEL-2 melanoma): 2.03 µM
TGI (SK-MEL-2 melanoma): 4.73 µM
GI50 (SK-MEL-28 melanoma): 3.83 µM
TGI (SK-MEL-28 melanoma): > 100 µM
GI50 (SK-MEL-5 melanoma): 1.71 µM
TGI (SK-MEL-5 melanoma): 3.45 µM
GI50 (SK-OV-3 ovarian): 2.8 µM
TGI (SK-OV-3 ovarian): > 100 µM
GI50 (SN12C renal): 2.64 µM
TGI (SN12C renal): 20.1 µM
GI50 (SNB-19 CNS): 2.32 µM
TGI (SNB-19 CNS): > 100 µM
GI50 (SNB-75 CNS): 2.27 µM
TGI (SNB-75 CNS): 9.62 µM
GI50 (SR leukemia): 2.6 µM
TGI (SR leukemia): 15.1 µM
GI50 (SW-620 colon): 3.09 µM
TGI (SW-620 colon): > 100 µM
GI50 (T-47D breast): 1.41 µM
TGI (T-47D breast): 9.18 µM
GI50 (TK-10 renal): 2.07 µM
TGI (TK-10 renal): 12.2 µM
GI50 (U251 CNS): 2.06 µM
TGI (U251 CNS): 8.27 µM
GI50 (UACC-257 melanoma): 2.31 µM
TGI (UACC-257 melanoma): 8.23 µM
GI50 (UACC-62 melanoma): 2.29 µM
TGI (UACC-62 melanoma): > 100 µM
GI50 (UO-31 renal): 1.87 µM
TGI (UO-31 renal): 7.09 µM
